Data as given in article PMC11272598, “RG7774 (Vicasinabin), an orally bioavailable cannabinoid receptor 2 (CB2R) agonist, decreases retinal vascular permeability, leukocyte adhesion, and ocular inflammation in animal models” (Frontiers in Pharmacology, 2024).
Several values for one entry are separate records, joined by “and”; a condition that tells them apart may be missing. Equal entries are not always repeated.

Key:
[1] = Plasma PK profile in rats; format: in vivo, Wistar rats; conditions: mean (% CV)
Description: The plasma PK profile of RG7774 was assessed in adult male C57BL/6J mice and female Wistar rats (Charles River, Cologne, Germany) housed in a controlled environment (temperature, humidity, and 12 h light/dark cycle) with unrestricted access to food and water. The ocular PK profile of RG7774 was assessed in adult female […] rats (Charles River, Mattawan, MI, United States) housed in a controlled environment (21°C–22°C temperature, 40%–60%, humidity, and 12 h light/dark cycle) with unrestricted access to food and water and conducted according to local regulations by EyeCRO (Ann Arbor, MI, United States).
In the first study (animal permission #1857), mice received RG7774 as an intravenous (IV) bolus at 1 mg/kg (n = 6) or as an oral (PO) dose at 3 mg/kg (n = 5). In the second study (animal permission #2373), rats received RG7774 as an IV bolus at 10 mg/kg (n = 4) or via gavage at 30 mg/kg (n = 3). Blood samples were collected 0.1, 1, 3, 10, and 24 h post-dose under deep anesthesia with 3%–5% isoflurane in 100% O2. Samples were collected sublingually from mice, from the tail vein in rats or via heart puncture (terminal) into anticoagulant-coated polypropylene tubes and placed on ice. Plasma was prepared within 30 min of collection by centrifugation at 3,000 g for 5 min at 4°C and was immediately frozen. RG7774 concentrations in plasma were determined using LC-MS/MS. PK parameters were estimated by non-compartmental analysis of plasma data using Phoenix WinNonlin software (Certara, Princeton, NJ, United States).

Jurkat cells = experiment: xCELLigence impedance assay in Jurkat cells; format: cell-based, human; conditions: xCELLigence, 1 h
Description: Background impedance was determined in 96-well RTCA E-plates (Agilent Technologies, Santa Clara, CA, United States) coated with 150 μg/mL fibronectin/H2O (Sigma-Aldrich, St. Louis, MO, United States) and containing 50 μL RPMI 1640 assay medium (Fisher Scientific, Schwerte, Germany) 31870) with 10% fetal calf serum (FCS). Jurkat cells (200,000 cells per well) were seeded in 100 μL of growth medium, allowed to settle for 30 min at RT, and cultured overnight at 37°C and 5% CO2. Dose-response curves were generated by adding increasing concentrations of RG7774 to seeded Jurkat cells and performing impedance measurements (xCelligence RTCA M, Agilent Technologies, Santa Clara, CA, United States) at baseline and 1 h after treatment. Displacement experiments were performed by incubating seeded Jurkat cells with 10 μM SR144528, a CB2R-selective antagonist (Tocris Bioscience, Bristol, United Kingdom) or 10 μM RO6851228 (a CB2R-selective inverse agonist; in-house synthesis) in assay medium overnight at 37°C and 5% CO2. Cells were re-treated with 10 μM SR144528 or […] for 1 h and stimulated with 233 nM RG7774 in assay medium. […] Displacement data are presented as the percentage of the maximal normalized cell index determined after antagonist/inverse agonist treatment relative to the percentage of the normalized cell index at 109 nM RG7774 treatment.

P-gp [2] = target: T1, P-gp (Mus musculus, UniProt P21447); experiment: P-gp assay in transfected LLC-PK1 cells; format: in vitro ADME
T1 construct: host or cells: LLC-PK1 (porcine kidney epithelial) cells
Description: (§1) The P-gp assay was conducted as previously described. Briefly, transfected porcine kidney epithelial (LLC-PK1) cells expressing human or mouse P-gp were cultured on 96-well semi-permeable filter membrane plates (Millipore, Darmstadt, Germany). LLC-PK1 cells were provided by Dr A. Schinkel from The Netherlands Cancer Institute (Amsterdam, The Netherlands). Cells formed a polarized monolayer with tight junctions that acted as a barrier between apical and basolateral compartments. P-gp was expressed in the apical-facing membrane of the monolayer (tightness confirmed using Lucifer yellow). […] The effect of P-gp was measured by expressing the efflux ratio of the unidirectional A > B and B > A Papp values. The mean permeability (A > B and B > A Papp) was determined in the absence of P-gp via the addition of the selective P-gp inhibitor, zosuquidar.

P-gp [3] = target: T2, P-gp (Homo sapiens, UniProt P08183); experiment: P-gp assay in transfected LLC-PK1 cells; format: in vitro ADME
T2 construct: host or cells: LLC-PK1 (porcine kidney epithelial) cells
Description: as §1

human CB1R = human CB1R (Homo sapiens, UniProt P21554); experiment: Forskolin-stimulated cAMP assay in CHO cells; format: cell-based; set-up: bgal (beta-galactosidase fragment of the PathHunter system); host or cells: CHO-K1; conditions: recombinant CHO cells
Description: The inhibitory effects of RG7774 on forskolin-stimulated accumulation of cAMP were determined using the cAMP-Nano-TRF detection kit (Roche Diagnostics, Penzberg, Germany), as previously described ([Porter et al., 2019]). CHOK1hCB1_bgal, CHOK1mCB2_bgal, and CHOK1hCB2_bgal cells (DiscoveRx, Fremont, CA, United States) were seeded 17–24 h prior to the experiment at a density of 3 × 10^4 cells per well in a black 96-well plate with a flat, clear bottom (Corning, Wiesbaden, Germany) prior to incubating in 5% CO2 at 37°C in a humidified incubator. The growth medium was exchanged with Krebs Ringer bicarbonate buffer containing 1 mM IBMX and 0.1% fatty acid-free BSA and incubated at 30°C for 1 h. RG7774 or positive control (CP55940) (1 µM) was added to a 0.1 mL final assay volume and the mixture was incubated at 30°C for 30 min. The assay was stopped by adding 50 μL 3x lysis reagent and shaking for 2 h at RT. The time-resolved energy transfer was measured using an LF502 Nanoscan FLT (IOM, Berlin, Germany) equipped with a laser excitation source. cAMP content was determined from a standard curve spanning 10–0.13 nM cAMP. Efficacies were expressed as a percentage relative to the positive control.

[4] = female, Wistar, rat, plasma, IV 10 mg/kg
[5] = female, Wistar, rat, plasma, PO 30 mg/kg

Chain of human CB1R (P21554 whole entry, the tested form may be a part): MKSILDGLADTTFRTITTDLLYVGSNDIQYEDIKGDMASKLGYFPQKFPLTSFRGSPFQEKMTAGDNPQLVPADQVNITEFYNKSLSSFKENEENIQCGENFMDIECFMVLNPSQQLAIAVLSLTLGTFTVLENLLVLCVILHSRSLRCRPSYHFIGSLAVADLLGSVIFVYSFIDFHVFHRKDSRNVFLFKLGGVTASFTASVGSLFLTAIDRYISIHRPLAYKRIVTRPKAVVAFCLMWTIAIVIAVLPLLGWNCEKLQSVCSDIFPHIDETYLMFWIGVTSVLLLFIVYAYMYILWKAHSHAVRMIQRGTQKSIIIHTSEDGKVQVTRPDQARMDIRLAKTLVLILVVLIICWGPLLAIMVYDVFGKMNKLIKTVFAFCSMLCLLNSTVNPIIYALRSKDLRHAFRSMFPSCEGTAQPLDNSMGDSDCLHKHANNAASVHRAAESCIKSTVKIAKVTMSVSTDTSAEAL
T1 sequence (P21447 whole entry): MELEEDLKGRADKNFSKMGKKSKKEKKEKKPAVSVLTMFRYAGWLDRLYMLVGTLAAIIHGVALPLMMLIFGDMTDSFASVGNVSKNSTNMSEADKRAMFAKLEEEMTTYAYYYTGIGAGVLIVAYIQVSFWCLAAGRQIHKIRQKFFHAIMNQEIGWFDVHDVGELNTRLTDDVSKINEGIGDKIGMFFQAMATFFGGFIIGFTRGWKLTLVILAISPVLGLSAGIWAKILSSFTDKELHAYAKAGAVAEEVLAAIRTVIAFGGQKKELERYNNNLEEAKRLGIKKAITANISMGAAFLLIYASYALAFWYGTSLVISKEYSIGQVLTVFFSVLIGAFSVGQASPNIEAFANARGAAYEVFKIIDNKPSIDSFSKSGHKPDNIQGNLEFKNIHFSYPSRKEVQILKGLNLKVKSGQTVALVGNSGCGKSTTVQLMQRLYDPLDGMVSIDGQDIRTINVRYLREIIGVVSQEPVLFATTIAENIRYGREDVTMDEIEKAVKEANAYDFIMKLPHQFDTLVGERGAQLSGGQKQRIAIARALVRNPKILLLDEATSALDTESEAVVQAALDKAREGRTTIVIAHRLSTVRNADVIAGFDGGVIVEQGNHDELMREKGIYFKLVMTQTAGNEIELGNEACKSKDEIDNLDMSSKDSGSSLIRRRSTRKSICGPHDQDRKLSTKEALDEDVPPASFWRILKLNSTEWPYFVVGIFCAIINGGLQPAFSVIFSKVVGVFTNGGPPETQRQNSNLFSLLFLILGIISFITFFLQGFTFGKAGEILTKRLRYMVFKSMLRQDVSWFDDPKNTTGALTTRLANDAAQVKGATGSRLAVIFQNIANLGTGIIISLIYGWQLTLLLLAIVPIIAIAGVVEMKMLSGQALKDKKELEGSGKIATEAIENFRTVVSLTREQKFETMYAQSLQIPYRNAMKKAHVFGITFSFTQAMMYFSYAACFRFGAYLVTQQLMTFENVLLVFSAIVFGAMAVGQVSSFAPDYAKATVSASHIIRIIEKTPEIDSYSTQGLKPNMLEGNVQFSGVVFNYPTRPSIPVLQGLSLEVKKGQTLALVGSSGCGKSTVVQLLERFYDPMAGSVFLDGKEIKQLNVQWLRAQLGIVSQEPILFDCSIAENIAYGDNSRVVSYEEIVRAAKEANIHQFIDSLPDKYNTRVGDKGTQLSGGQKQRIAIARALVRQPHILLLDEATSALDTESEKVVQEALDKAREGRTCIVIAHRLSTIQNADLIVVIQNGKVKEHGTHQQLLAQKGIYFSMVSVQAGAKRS
T2 sequence (P08183 whole entry): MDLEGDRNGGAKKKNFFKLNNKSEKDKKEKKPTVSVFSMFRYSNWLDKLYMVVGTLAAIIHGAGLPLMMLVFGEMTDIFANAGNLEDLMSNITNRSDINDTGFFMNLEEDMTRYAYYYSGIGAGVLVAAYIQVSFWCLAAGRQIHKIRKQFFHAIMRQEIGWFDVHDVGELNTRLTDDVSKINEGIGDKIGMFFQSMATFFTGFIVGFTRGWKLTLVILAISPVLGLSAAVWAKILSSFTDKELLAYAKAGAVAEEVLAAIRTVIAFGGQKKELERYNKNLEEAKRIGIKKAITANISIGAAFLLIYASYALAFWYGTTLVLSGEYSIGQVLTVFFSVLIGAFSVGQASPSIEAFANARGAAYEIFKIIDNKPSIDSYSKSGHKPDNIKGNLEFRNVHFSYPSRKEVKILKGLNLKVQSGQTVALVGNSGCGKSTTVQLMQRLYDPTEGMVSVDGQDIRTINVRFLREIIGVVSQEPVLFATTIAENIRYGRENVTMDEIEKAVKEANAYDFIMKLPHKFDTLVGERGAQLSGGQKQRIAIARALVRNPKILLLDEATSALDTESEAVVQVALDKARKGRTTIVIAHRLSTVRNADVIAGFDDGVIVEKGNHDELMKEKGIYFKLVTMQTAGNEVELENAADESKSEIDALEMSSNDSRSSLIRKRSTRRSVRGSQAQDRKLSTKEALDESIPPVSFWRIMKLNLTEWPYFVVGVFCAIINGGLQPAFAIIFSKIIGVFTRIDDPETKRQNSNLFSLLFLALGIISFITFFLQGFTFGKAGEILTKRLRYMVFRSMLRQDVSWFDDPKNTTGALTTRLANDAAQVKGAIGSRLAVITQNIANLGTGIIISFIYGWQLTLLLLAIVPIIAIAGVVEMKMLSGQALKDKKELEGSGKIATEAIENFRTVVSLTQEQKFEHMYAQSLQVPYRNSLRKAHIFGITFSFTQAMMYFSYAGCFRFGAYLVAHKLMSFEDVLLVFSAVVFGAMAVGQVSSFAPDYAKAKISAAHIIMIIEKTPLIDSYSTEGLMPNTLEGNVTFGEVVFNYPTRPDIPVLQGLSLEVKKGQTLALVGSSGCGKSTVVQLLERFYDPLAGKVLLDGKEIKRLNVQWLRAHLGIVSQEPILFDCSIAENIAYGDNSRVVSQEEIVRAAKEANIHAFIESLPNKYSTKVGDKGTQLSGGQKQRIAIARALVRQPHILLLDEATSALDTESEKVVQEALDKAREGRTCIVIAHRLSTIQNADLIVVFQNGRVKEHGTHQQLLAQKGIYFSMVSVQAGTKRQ

Cn1nnnc1Cn1nnc2c(N3CC[C@H](O)C3)nc(C(C)(C)C)nc21 [RG7774, (S)-1-(5-tert-butyl-3-[(1-methyl-1H-tetrazol-5-yl)methyl]-3H-[1,2,3]triazolo[4,5-d]pyrimidin-7-yl)pyrrolidin-3-ol]
AUCinf/dose ([1]; IV 10 mg/kg): 6,000 (16) ng h^–1 ml^–1 (mg kg^−1) ^−1
AUCinf/dose ([1]; PO 30 mg/kg): 4,670 (9.4) ng h^–1 ml^–1 (mg kg^−1) ^−1
Cmax/dose ([1]; PO 30 mg/kg): 466 (13) ng ml^–1 (mg kg^–1) ^−1
clearance [1, 4]: 2.84 mL/min/kg
half-life [1, 4]: 2.54 h
Vd ([1]; female, Wistar, rat, plasma, IV 10 mg/kg, read-out: Vss): 0.442 L/kg
Tmax [1, 5]: 1.25 h
bioavailability [1, 5]: 81.4%
half-life [1, 5]: 3.18 h
EC50, cell index relative to maximal cell index of RG7774 at 233 nM (Jurkat cells): 10.8 nM and 10.8 ± 4.2 nM
efflux ratio at 3 h (P-gp [2]): 16.2
efflux ratio at 3 h (P-gp [3]): 2.5
effect on human CB1R in cAMP assay (human CB1R): no effect
